Assay results from patent US6007823A, “Simmondsin concentrate from jojoba” (The United States of America as represented by the …, priority 1998, dated 1999).

Columns and labels:
mice = details: Cokeleare et al. 1995; cited from earlier work
rats = details: Cokeleare et al. 1995; cited from earlier work
chickens = details: Cokeleare et al. 1995; cited from earlier work
[1] = Solubility of didemethyl simmondsin in absolute ethanol; format: physicochemical
Protocol: DWE, 1 gram, was stirred 30 min with 20 ml of either acetone, acetonitrile,chloroform, methanol, water, ethanol, isopropanol, 95/5 isopropanol/water or 5/95 methanol/chloroform. Supernatant was filtered, dried, weighed, and analyzed for simmondsin and analogues. […] Both the amount of simmondsins extracted and their enrichment in the extract are important in choosing a selective solvent. Therefore, selectivity was calculated as enrichment times concentration for each component, simmondsin, simmondsin ferulate, demethylsimmondsin and didemethyl simmondsin as well as the total for all four components and plotted against solvent composition and solvent to solute ratio. For simmondsin, selectivity or SIMM-- X=[(concentration of simmondsin in extract)/(concentration of simmondsin in DWE)][weight of simmondsin in extract/weight of simmondsin in DWE].

[2] = statement without test; cited from earlier work

SMILES	Food intake (mice)	Food intake (rats)	Food intake (chickens)	Solubility in absolute ethanol [1]	Bioactivity [2]
CO[C@H]1[C@@H](OC)C[C@@H](O[C@@H]2O[C@H](CO)[C@@H](O)[C@H](O)[C@H]2O)/C(=C\C#N)[C@@H]1O [simmondsin]	reduces food intake	reduces food intake	reduces food intake		
N#CC=C1C(OC2OC(CO)C(O)C(O)C2O)CC(O)C(O)C1O (centres unmarked) [didemethyl simmondsin]				very limited	non-bioactive
